Assay results taken from patent US20090099187A1, “Novel 8-Sulfonyl-3 Aminosubstituted Chroman or Tetrahydronaphtalene Derivatives Modulating the 5HT6 Receptor” (AstraZeneca AB, priority 2005, published 2009).

Molecular target: rat striatal 5HT6 receptors (Rattus norvegicus, UniProt P31388)
Sequence (P31388 whole entry): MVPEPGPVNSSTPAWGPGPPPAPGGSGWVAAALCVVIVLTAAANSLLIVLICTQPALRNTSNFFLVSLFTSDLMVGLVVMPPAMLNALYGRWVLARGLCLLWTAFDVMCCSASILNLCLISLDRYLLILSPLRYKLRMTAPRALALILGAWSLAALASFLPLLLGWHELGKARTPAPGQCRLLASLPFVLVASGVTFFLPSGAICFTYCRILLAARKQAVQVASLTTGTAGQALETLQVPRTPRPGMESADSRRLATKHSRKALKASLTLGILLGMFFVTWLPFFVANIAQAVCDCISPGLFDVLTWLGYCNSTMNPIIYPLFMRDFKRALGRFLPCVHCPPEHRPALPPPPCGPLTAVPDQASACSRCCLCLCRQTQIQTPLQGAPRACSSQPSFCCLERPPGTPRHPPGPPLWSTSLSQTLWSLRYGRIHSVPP
Description: Striatal tissue from adult rats (Sprague-Dawley, 320-370 g, B & K Sweden) were dissected out, weighed and homogenized in buffer containing 50 mM Tris-HCl, 4 mM MgCl2, 1 mM EDTA, 10 μM pargyline and protease inhibitor (Complete, Roche Diagnostics) pH 7.4 using an Ultra-Turrax T8 (IKA Labortechnik, Germany). The tissue homogenate was centrifuged at 48 000×g for 10 min and the pellet was resuspended and recentrifuged as above. The final membranes were diluted in buffer to a concentration of 60 mg original wet weight (w.w.) per ml and stored in aliquots at −70° C.
Non-specific binding was determined in the presence of 10 μM methiothepin. In the competition experiments 0.8-2 mg w.w. per tube and a radioligand concentration of 0.5-1 nM were used with 7 concentrations of the competing drug pre-dissolved in DMSO and diluted in buffer. The assays were incubated for 1-3 hours at room temperature, and terminated by rapid filtration through Whatman GF/B filters pretreated with 0.3% polyethyleneimine using a Brandel cell harvester. The radioactivity was determined in a Packard Tri-Carb 2900TR liquid scintillation counter. Data were analyzed by non-linear regression analyses using PRISM 4.00 (GraphPad Software Inc., San Diego, Calif.).

Ki [nM]	SMILES
1.7 ± 0.6	COc1ccc(Cl)cc1NS(=O)(=O)c1ccc(OC)c2c1CC[C@H](N(C)C)C2 [Example 1, (6S)—N-(5-Chloro-2-methoxyphenyl)-6-(dimethylamino)-4-methoxy-5,6,7,8-tetrahydronaphthalene-1-sulfonamide]
4.2 ± 1.4	COc1ccc(S(=O)(=O)N2CCc3ccccc3C2)c2c1C[C@@H](N(C)C)CC2 [Example 21, [5-(3,4-Dihydro-1H-isoquinoline-2-sulfonyl)-8-methoxy-1,2,3,4-tetrahydro-naphthalen-2-yl]-dimethyl-amine]
2.3 ± 1.3	COc1ccc(Cl)cc1NS(=O)(=O)c1ccc(OC)c2c1OC[C@H](N(C)C)C2 [Example 60, (3R)—N-(5-Chloro-2-methoxyphenyl)-3-(dimethylamino)-5-methoxychromane-8-sulfonamide]
27 ± 16	COc1ccc(S(=O)(=O)Nc2cc(Cl)cc(Cl)c2)c2c1C[C@@H](N1CCCC1)CO2 [Example 69, (3R)—N-(3,5-Dichlorophenyl)-5-methoxy-3-pyrrolidin-1-ylchromane-8-sulfonamide]
30 ± 7	CN[C@H]1COc2c(S(=O)(=O)Nc3ccccc3)ccc(OC)c2C1 [Example 71, (3R)-5-Methoxy-3-(methylamino)-N-phenylchromane-8-sulfonamide]
290 ± 50	CCc1ccc(S(=O)(=O)Nc2ccc(F)c(Cl)c2)c2c1C[C@@H](N(C)C)CO2 [Example 72, (3R)—N-(3-Chloro-4-fluorophenyl)-3-(dimethylamino)-5-ethylchromane-8-sulfonamide]

SMILES	Ki [nM]
COc1ccc(S(=O)(=O)Nc2ccccn2)c2c1C[C@@H](N(C)C)CC2 [Example 18, (6S)-6-(Dimethylamino)-4-methoxy-N-pyridin-2-yl-5,6,7,8-tetrahydronaphthalene-1-sulfonamide]	17 ± 5
CN[C@H]1CCc2c(S(=O)(=O)Nc3ccc(Cl)cc3)ccc(OC)c2C1 [Example 25, (6S)—N-(4-chlorophenyl)-4-methoxy-6-(methylamino)-5,6,7,8-tetrahydronaphthalene-1-sulfonamide]	12 ± 4.2
